Starred links: 1 amine or outer side, 2 acyl side, 3 side chain; linkers in the order of their positions; H or OH if unused. Non-standard residues stand in square brackets, D forms with d. Residues, ends and D or L forms follow the SMILES beside them. dPro(4R-(4-pyridylmethyl)) = O=C(O)[C@H]1C[C@@H](Cc2ccncc2)CN1; X17 = CN(C)C(=O)c1ccc(-c2ccc(C[C@H](N[*:1])C(=O)[*:2])cc2)cc1; Trp(βS-Me,4-F) = C[C@@H](c1c[nH]c2cccc(F)c12)[C@H](N)C(=O)O; Bip(4'-CONH2) = NC(=O)c1ccc(-c2ccc(C[C@H](N)C(=O)O)cc2)cc1; Bip(4'-COOH) = N[C@@H](Cc1ccc(-c2ccc(C(=O)O)cc2)cc1)C(=O)O; dPro(4R-Bzl(4-F)) = O=C(O)[C@H]1C[C@@H](Cc2ccc(F)cc2)CN1; dPro(3S-(4-F-Bn)) = O=C(O)[C@@H]1NCC[C@@H]1Cc1ccc(F)cc1; Ala(pyrimidin-5-yl) = N[C@@H](Cc1cncnc1)C(=O)O; Phe(4-COOH) = N[C@@H](Cc1ccc(C(=O)O)cc1)C(=O)O; X25 = C[N+](C)(C)CCC[C@H](N[*:1])C(=O)[*:2]; Lys(Me3) = C[N+](C)(C)CCCC[C@H](N)C(=O)O; Phe(4-Br) = N[C@@H](Cc1ccc(Br)cc1)C(=O)O; Pro(cis-4-F) = O=C(O)[C@@H]1C[C@H](F)CN1; Ala(4-THP) = N[C@@H](CC1CCOCC1)C(=O)O; d(αMeD) = C[C@@](N)(CC(=O)O)C(=O)O; 4Pal = N[C@@H](Cc1ccncc1)C(=O)O; Dab = NCC[C@H](N)C(=O)O; Aib = CC(C)(N)C(=O)O

Usually IC50 stands for the concentration at which inhibition is half-maximal.

The assay has as its target T1, IL-1β (Homo sapiens, UniProt P01584).
T1 construct: purchased BioLegend 579404
As to the kind of experiment: IL-6 assay in MRC5 cells: inhibition of IL-1β induced IL-6 secretion (AlphaLISA). The following applies: inhibition of IL-1β induced IL-6 secretion in MRC5 cells; compound pre-incubated 1 hour with recombinant human IL-1β; read-out: MRC5 IC50. The format is cell-based. An outline of the steps:
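Compound was pre-incubated 1 h at ambient temperature with recombinant human IL-1β at 2λ EC80 before adding human lung fibroblast MRC5 cells (3000/well) in EMEM with 0.025% BSA. After overnight culture at 37 °C, 5% CO2, secreted IL-6 in conditioned medium was measured by AlphaLISA; IC50 from 4-parameter logistic fits.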
On the technique in general: In Alpha technology, singlet oxygen from a donor bead excites a nearby acceptor bead.

T1 sequence (P01584 117-269): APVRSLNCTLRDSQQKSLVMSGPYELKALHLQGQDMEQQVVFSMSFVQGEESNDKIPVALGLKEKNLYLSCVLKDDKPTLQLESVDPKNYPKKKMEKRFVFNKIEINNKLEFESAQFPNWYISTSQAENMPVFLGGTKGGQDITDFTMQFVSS

With `C[C@@H](c1c[nH]c2cccc(F)c12)[C@@H]1NC(=O)[C@@H]2C[C@H](F)CN2C(=O)CNC(=O)[C@H](Cc2ccc(C(=O)O)cc2)NC(=O)[C@H](Cc2ccncc2)NC(=O)[C@H](Cc2ccc(-c3ccc(C(=O)N(C)C)cc3)cc2)NC(=O)[C@H]2C[C@@H](Cc3ccncc3)CN2C(=O)CNC(=O)[C@H](CCN)NC(=O)[C@H](CCC(N)=O)NC(=O)[C@H](CC2CCOCC2)NC(=O)[C@@](C)(CC(=O)O)NC(=O)[C@H](Cc2c[nH]c3ccccc23)NC(=O)[C@H](CO)NC(=O)C(C)(C)NC1=O` [Example 295] (cyclo([X17][4Pal][Phe(4-COOH)]G[Pro(cis-4-F)][Trp(βS-Me,4-F)][Aib]SW[d(αMeD)][Ala(4-THP)]Q[Dab]G[dPro(4R-(4-pyridylmethyl))])), the IC50 amounted to 0.012 nM.

Turning to `C[C@@H](c1c[nH]c2cccc(F)c12)[C@@H]1NC(=O)[C@@H]2C[C@H](F)CN2C(=O)CNC(=O)[C@H](Cc2ccc(C(=O)O)cc2)NC(=O)[C@H](Cc2ccncc2)NC(=O)[C@H](Cc2ccc(-c3ccc(C(N)=O)cc3)cc2)NC(=O)[C@H]2C[C@@H](Cc3ccncc3)CN2C(=O)CNC(=O)[C@H](CCN)NC(=O)[C@H](CCC(N)=O)NC(=O)[C@H](CC2CCOCC2)NC(=O)[C@@](C)(CC(=O)O)NC(=O)[C@H](Cc2c[nH]c3ccccc23)NC(=O)[C@H](CO)NC(=O)C(C)(C)NC1=O` [Example 296] (cyclo([Bip(4'-CONH2)][4Pal][Phe(4-COOH)]G[Pro(cis-4-F)][Trp(βS-Me,4-F)][Aib]SW[d(αMeD)][Ala(4-THP)]Q[Dab]G[dPro(4R-(4-pyridylmethyl))])), the concentration for half-maximal inhibition (IC50) amounted to 0.013 nM.

Turning to `C[C@@H](c1c[nH]c2cccc(F)c12)[C@@H]1NC(=O)[C@@H]2C[C@H](F)CN2C(=O)CNC(=O)[C@H](Cc2ccc(C(=O)O)cc2)NC(=O)[C@H](Cc2ccncc2)NC(=O)[C@H](Cc2ccc(-c3ccc(C(=O)O)cc3)cc2)NC(=O)[C@H]2C[C@@H](Cc3ccc(F)cc3)CN2C(=O)CNC(=O)[C@H](CCN)NC(=O)[C@H](CCC(N)=O)NC(=O)[C@H](CCC[N+](C)(C)C)NC(=O)C(C)(C)NC(=O)[C@H](Cc2c[nH]c3ccccc23)NC(=O)[C@H](CO)NC(=O)C(C)(C)NC1=O` [Example 297] (cyclo([Bip(4'-COOH)][4Pal][Phe(4-COOH)]G[Pro(cis-4-F)][Trp(βS-Me,4-F)][Aib]SW[Aib][X25]Q[Dab]G[dPro(4R-Bzl(4-F))])), the half-inhibitory concentration (IC50) was found to be 0.022 nM.

Turning to `C[C@@H](c1c[nH]c2cccc(F)c12)[C@@H]1NC(=O)[C@@H]2C[C@H](F)CN2C(=O)CNC(=O)[C@H](Cc2ccc(C(=O)O)cc2)NC(=O)[C@H](Cc2ccncc2)NC(=O)[C@H](Cc2ccc(-c3ccc(C(=O)O)cc3)cc2)NC(=O)[C@H]2C[C@@H](Cc3ccc(F)cc3)CN2C(=O)CNC(=O)[C@H](CCN)NC(=O)[C@H](CCC(N)=O)NC(=O)[C@H](CCCC[N+](C)(C)C)NC(=O)C(C)(C)NC(=O)[C@H](Cc2c[nH]c3ccccc23)NC(=O)[C@H](CO)NC(=O)C(C)(C)NC1=O` [Example 298] (cyclo([Bip(4'-COOH)][4Pal][Phe(4-COOH)]G[Pro(cis-4-F)][Trp(βS-Me,4-F)][Aib]SW[Aib][Lys(Me3)]Q[Dab]G[dPro(4R-Bzl(4-F))])), the IC50 worked out at 0.015 nM.

Turning to `C[C@@H](c1c[nH]c2cccc(F)c12)[C@@H]1NC(=O)[C@@H]2C[C@H](F)CN2C(=O)CNC(=O)[C@H](Cc2ccc(C(=O)O)cc2)NC(=O)[C@H](Cc2ccncc2)NC(=O)[C@H](Cc2ccc(Br)cc2)NC(=O)[C@H]2[C@@H](Cc3ccc(F)cc3)CCN2C(=O)CNC(=O)[C@H](CCN)NC(=O)[C@H](CCC(N)=O)NC(=O)[C@H](Cc2cncnc2)NC(=O)[C@@](C)(CC(=O)O)NC(=O)[C@H](Cc2c[nH]c3ccccc23)NC(=O)[C@H](CO)NC(=O)C(C)(C)NC1=O` [Example 299] (cyclo([Phe(4-Br)][4Pal][Phe(4-COOH)]G[Pro(cis-4-F)][Trp(βS-Me,4-F)][Aib]SW[d(αMeD)][Ala(pyrimidin-5-yl)]Q[Dab]G[dPro(3S-(4-F-Bn))])), the 50% inhibitory concentration (IC50) was determined as 0.012 nM.

The values are drawn from patent US20260242419A1, “A CYCLIC PEPTIDE FOR TRAPPING INTERLEUKIN-1 BETA” (Merck Sharp & Dohme LLC, priority 2023, published 2026).
